Article PMC9032987, “Cytotoxic Alkylynols of the Sponge Cribrochalina vasculum: Structure, Synthetic Analogs and SAR Studies” (Marine Drugs, 2022)
Read-outs that look alike come from different tables or passages of the source.

Experiments:
NSCLC U-1810 cells [1] = assay: MTT cytotoxicity assay in NSCLC U-1810 cells; type: cell-based, human; settings: for IC50: MTT, 72 h post addition, estimated from cell viability curve; for viability at 113 µM: U-1810, at 113 µM
Procedure: (§1) Cytotoxicity structure-activity relationship analyses of compounds in NSCLC tumor cells and fibroblasts. Stock solutions (10 mg/mL) of the compounds to be tested were made in DMSO and further diluted with cell culture media prior to structure-activity relationship (SAR) screening as earlier described. To assess anti-tumor activity, the large cell lung carcinoma cell line NSCLC U-1810 (kind gift from Uppsala University) and diploid lung fibroblasts WI-38 [30] were used. U-1810 cells were propagated in RPMI-1640 medium (Sigma-Aldrich, St. Louis, […], USA) supplemented with FBS (10% HyClone) and L-glutamine (2 mmol/L, Invitrogen) while WI-38 fibroblasts were cultured in Eagle’s Minimum Essential Medium (Sigma-Aldrich) with 15% FBS and L-glutamine. For SAR assessment the cytotoxic assay 3-(4,5-dimethylthiazol-2-yl)-2,5 diphenyltetrazolium bromide (MTT) was applied. Profiling of U-1810 cells was carried out at 80% confluency (obtained by seeding 5000 cells/well in a 96-well plate for 24 h prior to treatment) and of WI-38 at 100% confluency (obtained by seeding 18,000 cells/well in a 96-well plate for 24 h prior to compound addition), the later to mimic the behavior of fibroblasts in the human body where they are non-dividing. For SAR evaluation, different concentrations of the compounds were added to fresh media while untreated cells were treated with DMSO corresponding to the amount applied when testing the highest concentration of the different compounds. The cytotoxicity of the compounds was assessed at 72 h post addition to cells by adding MTT solution (0.5 mg/mL, Sigma-Aldrich, 4 h at 37 °C) and dissolving the resulting formazan crystals in an SDS-containing solution (10% SDS and 0.01 mol/L HCl). Absorbance was quantified at 595 nm and the compound-induced cytotoxicity was calculated relative to that observed in DMSO-treated cells. The IC50 values were deduced from survival plots drawn in Graph Pad PRISM software vers.6 and for some of the compounds extrapolated as indicated in footnotes to Table 1.

[2] = MTT cytotoxicity assay in diploid lung fibroblasts WI-38; type: cell-based, human; settings: human, WI-38 diploid lung fibroblasts, 72 h, read-out: cell viability; for viability at 72 h, 188 µM: WI-38, at 188 µM; for viability at 72 h, 113 µM: WI-38, at 113 µM
Procedure: as §1

[3] = system: WI-38 diploid lung fibroblasts; assay: as above; type: cell-based, human; settings: MTT, 72 h post addition, confluent cells, estimated from cell viability curve
Procedure: as §1

NSCLC U-1810 cells [4] = system: NSCLC U-1810 cells; parameters: method as in PMID 25319389; settings: 72 h; cited from earlier work
[5] = system: WI-38 diploid lung fibroblasts; parameters: method as in PMID 25319389; settings: 72 h; cited from earlier work
[6] = calculated at IC50 of U-1810 and the highest dose applied in WI-38 (IC50 not reached)
[7] = calculated at IC50 (WI-38 IC50 / U-1810 IC50)
[8] = Homo sapiens, 72 h, read-out: cell viability

Compound | IC50 (NSCLC U-1810 cells [1]; Homo sapiens, U-1810, 72 h) [µM] | IC50 ([3]; Homo sapiens, WI-38, 72 h) [µM] | Selectivity NSCLC cells (U-1810) vs. diploid fibroblasts (WI-38) (NSCLC U-1810 cells [1]; [7]) | further results
C#CC(O)CCCCCCCCCCCCCCCCC (racemic) [rac-33, Icos-1-yn-3-ol] | 2.8 | > 170 |  | viability at 72 h, 170 µM ([2]; WI-38, at 170 µM): ~100%
C#CC(CCCCCCCCCCCCCCC)OS(=O)(=O)c1ccc(C)cc1 (racemic) [rac-35, Octadec-1-yn-3-yl 4-methylbenzenesulfonate] | 23 | > 119 |  | Selectivity NSCLC cells (U-1810) vs. diploid fibroblasts (WI-38) (NSCLC U-1810 cells [1]; [6]): >5.2 ^s; viability at 72 h, 119 µM ([2]; WI-38, at 119 µM): ~85%
C#CC(Cl)CCCCCCCCCCCCCCC (racemic) [rac-36, 3-chlorooctadec-1-yne] | 140 | > 175 |  | tumor selective cytotoxicity NSCLC vs WI-38 (in words) (NSCLC U-1810 cells [1]): did not display any specific cytotoxicity; Selectivity NSCLC cells (U-1810) vs. diploid fibroblasts (WI-38) (NSCLC U-1810 cells [1]; [6]): >1.3 ^u; viability at 72 h, 175 µM ([2]; WI-38, at 175 µM): ~75%
C#CC(CCCCCCCCCCCCCCC)OC (racemic) [rac-38, 3-Methoxyoctadec-1-yne] | > 179 | > 179 |  | tumor selective cytotoxicity NSCLC vs WI-38 (in words) (NSCLC U-1810 cells [1]): did not display any specific cytotoxicity; viability at 179 µM (NSCLC U-1810 cells [1]; Homo sapiens, U-1810, at 179 µM, 72 h, read-out: cell viability): ~71%; viability at 72 h, 179 µM ([2]; WI-38, at 179 µM): ~77%
C#CC(CCCCCCCCCCCCCCC)SC(C)=O (racemic) [rac-39, S-Octadec-1-yn-3-yl ethanethioate] | 60 | > 154 |  | tumor selective cytotoxicity NSCLC vs WI-38 (in words) (NSCLC U-1810 cells [1]): did not display any specific cytotoxicity; viability at 72 h, 154 µM ([2]; WI-38, at 154 µM): ~85%
C#CC(S)CCCCCCCCCCCCCCC (racemic) [rac-40, Octadec-1-yne-3-thiol] | > 177 | > 177 |  | tumor selective cytotoxicity NSCLC vs WI-38 (in words) (NSCLC U-1810 cells [1]): did not display any specific cytotoxicity; viability at 177 µM (NSCLC U-1810 cells [1]; Homo sapiens, U-1810, at 177 µM, 72 h, read-out: cell viability): ~100%; viability at 72 h, 177 µM ([2]; WI-38, at 177 µM): ~100%
C#C[C@H](O)/C=C/CCCCCCCCC/C=C\CCCCC(C)C [Compound 22, (3R)-21-Methyldocos-(4E,15Z)-dien-1-yn-3-ol] | 1.2 | 13 | 10.8 | cytotoxic activity in NSCLC U-1810 cells (in words) (NSCLC U-1810 cells [1]): equally active
C#C[C@H](O)/C=C/CCCCCCCCC(C)CCCCCCCC (stereo partly drawn) [Compound 23, (3R)-14-Methyldocos-(4E)-en-1-yn-3-ol] |  |  | 12.1 | cytotoxic activity in NSCLC U-1810 cells (in words) (NSCLC U-1810 cells [1]): equally active; IC50 (NSCLC U-1810 cells [4]): 0.8 µM; IC50 [5]: 9.7 µM
C#C[C@H](O)/C=C/CCCCCCCCCCCCCCC [Compound R-18, (R,E)-icos-4-en-1-yn-3-ol] |  |  | 3.8 | IC50 (NSCLC U-1810 cells [1]): 0.9 µM; IC50 [3]: 3.4 µM
C#C[C@H](O)CCCCCCCCCCCCCCC [Compound R-32, (R)-octadec-1-yn-3-ol] | 1.4 | > 188 |  | viability at 72 h, 188 µM [2]: ~60%
C#C[C@@H](O)CCCCCCCCCCCCCCC [Compound S-32, (S)-octadec-1-yn-3-ol] | 140 | > 188 |  | viability at 72 h, 188 µM [2]: ~80%
C#C[C@@H](CCCCCCCCCCCCCCC)OC(=O)[C@](OC)(c1ccccc1)C(F)(F)F [R,R-34, (R)-((R)-octadec-1-yn-3-yl)-3,3,3-trifluoro-2-methoxy-2-phenylpropanoate] | > 113 | > 113 |  | viability at 113 µM (NSCLC U-1810 cells [1]; [8]): ~100%; viability at 72 h, 113 µM [2]: ~100%
C#C[C@H](CCCCCCCCCCCCCCC)OC(=O)[C@](OC)(c1ccccc1)C(F)(F)F [S,R-34, (R)-((S)-octadec-1-yn-3-yl)-3,3,3-trifluoro-2-methoxy-2-phenylpropanoate] | > 113 | > 113 |  | viability at 113 µM (NSCLC U-1810 cells [1]; [8]): ~96%; viability at 72 h, 113 µM [2]: ~100%
C#C[C@H](O)/C=C/CCCCCCCCCCCCCCC [scal-18, (3R)-Icos-(4E)-en-1-yn-3-ol] |  |  | 14.6 | cytotoxic activity in NSCLC U-1810 cells (in words) (NSCLC U-1810 cells [1]): equally active; IC50 (NSCLC U-1810 cells [4]): 0.5 µM; IC50 [5]: 7.3 µM
C#C[C@H](O)/C=C/CCCCCCCCCCCCCCC [scal-R-18, (R,E)-icos-4-en-1-yn-3-ol] | 1 | 6.8 | 6.8 | 
C#C[C@@H](O)/C=C/CCCCCCCCCCCCCCC [scal-S-18, (S)-icos-(4E)-en-1-yn-3-ol] | 1 | 8.5 | 8.5 | 
